Measurements published in PMC11784145, “Efficacy and in vitro pharmacological assessment of novel N-hydroxypyridinediones as hepatitis B virus ribonuclease H inhibitors” (Antimicrobial Agents and Chemotherapy, 2024).

Columns and labels:
[1] = Parallel artificial membrane permeability assay (PAMPA); type: in vitro ADME
Experimental: Compound Papp values were determined by normalizing the experimental compound absorbance to the compounds’ absorbances at equilibrium, membrane porosity, buffer volume, and time (s). Two or more replicate assays were obtained on separate days for each pH.

CYP2D6 = molecular target: T1, CYP2D6 (Homo sapiens, UniProt P10635); assay: Cytochrome P450 inhibition, Vivid 2D6 EOMCC Blue kit; type: in vitro ADME; conditions: dose-response 50 µM to 3 nM; mean ± SD
T1 construct: purchased Thermo Fisher Vivid 2D6 EOMCC Blue
Experimental: (§1) Compound inhibition of Cytochrome P (CYP) 3A4, 2C9, and 2D6 was determined using Vivid CYP450 screening kits (Thermo Fisher) according to the manufacturer’s instructions, as described previously ([27]). The kits employed were: Vivid 3A4 DBOMF Green, 2C9 BOMF Green, and 2D6 EOMCC Blue. Reactions were initiated by addition of the fluorophore-conjugated substrates with Vivid NADP^+ and were conducted at 37°C using either a Biotek Synergy HTX multi-mode plate reader with 485/20 nm excitation and 520/20 nm emission filters (green-fluorescent substrate), or a Tecan Spark plate reader with monochromator settings at 415/20 nm excitation and 460/20 nm emission (blue-fluorescent substrate) defined by the Center Wavelength/band-pass values. Substrate cleavage was detected every 60 s.
(§2) Compounds were initially screened against each enzyme at 10 µM and maximum rates of fluorescence in RFU were calculated using the Biotek Gen5 v3.11 software. Percent inhibition of experimental compound reactions was normalized to the rate to DMSO vehicle reactions. Positive controls used were: CYP3A4—ketoconazole (Sigma Aldrich), CYP2C9—sulfaphenazole (Cayman Chemical), and CYP2D6—quinidine (Fisher Scientific). Dose-response curves were generated for compounds that inhibited an enzyme by ≥50% using titrated concentrations of compound (50 µM to 3 nM) or 1% DMSO. IC50 values were determined using the four-parameter log[inhibitor] versus response algorithm in GraphPad Prism. Qualitative screens and dose-response curves were each performed in triplicate on different days.

[2] = Solubility limit, turbidimetric assay; type: physicochemical; conditions: upper limit 200 µM
Experimental: Solubility limits were determined by a turbidimetric assay, as described ([27]), with the solubility limit being defined as the compound concentration where light scattering began to rise. Two or more replicate assays were performed for each compound at each pH on different days.

[3] = system: HBV replication (HBV plus-polarity DNA strand); assay: HBV replication inhibition, strand preferential qPCR in hepDES19 cells; type: cell-based, hepatitis B virus; conditions: for EC50: 72 h exposure, HBV plus-polarity strand suppression, highest concentration tested 100 µM, mean ± SD, read-out: HepDES19 EC50
Experimental: HBV replication inhibition was measured in hepDES19 cells following 72 h compound exposure without compound replenishment. EC50 values were determined by HBV plus-polarity strand suppression using a strand preferential qPCR assay, as described previously ([28]). Three or more replicate values were obtained on different days.

HepDES19 cells = conditions: read-out: HepDES19 CC50; 72 h, MTS; highest concentration tested 100 µM; mean ± SD
Experimental: HepDES19 cells were plated on 96-well tissue culture-treated plates (Greiner) at 1.0 × 10^4 cells per well and incubated for 48 h. Cells were treated with titrated concentrations of compound or 1% DMSO vehicle for 72 h, and cellular viability was measured by 3-(4,5-dimethylthiazol-2-yl)−5-(3-carboxymethoxyphenyl)−2-(4-sulfophenyl)−2H-tetrazolium (MTS) assays, as described previously ([20]). […] Three or more replicate assays were done on different days.

CYP3A4 = molecular target: T2, CYP3A4 (Homo sapiens, UniProt P08684); assay: Cytochrome P450 inhibition, Vivid 3A4 DBOMF Green kit; type: in vitro ADME; conditions: 10 µM compound
T2 construct: purchased Thermo Fisher Vivid 3A4 DBOMF Green
Experimental: as §1
as §2, with “Dose-response curves were generated for compounds that inhibited an enzyme by ≥50% using titrated concentrations of compound (50 µM to 3 nM) or 1% DMSO.” left out, “Qualitative screens and dose-response curves were each performed in triplicate on different days.” left out

Microsome stability = type: in vitro ADME, human; conditions: human, microsomes
Experimental: Human liver microsomes (gender pooled, 50 individuals) were purchased from BioIVT and stored at −80°C until use. […] Reactions were initiated by addition of 1.2 mM NADPH. […] Microsomal proteins were pelleted at 4,000 × g and the supernatant was analyzed via LCMS/MS. […] The ln percent remaining values were plotted against time, the negative slope was taken (k), and compound half-life (t1/2) was determined using ln2/k. Intrinsic clearance (Clint [µL/min/mg]) was calculated by (V × ln2)/t1/2, where V is the incubation volume (µL) divided by the protein concentration in the reaction (mg) ([31]).

plasma proteins = assay: Plasma protein binding, rapid equilibrium dialysis; type: in vitro ADME, bovine; conditions: 10 µM compound, DMEM-F12 with 10% FBS (0.25 mg/mL BSA), 4 h, 37°C
Experimental: Plasma protein binding was performed using the Pierce rapid equilibrium dialysis device (Thermo Fisher) per the manufacturer’s instructions, as described ([27]). Briefly, the sample wells contained DMEM-F12 supplemented with 10% FBS spiked with 10 µM compound, and the buffer wells contained phosphate-buffered saline (PBS). The plate was incubated for 4 h at 37°C with shaking, after which 50 µL was retrieved from the buffer and sample wells and added to ice-cold acetonitrile and the internal standard described above. Samples were matrix-matched with PBS supplemented with 10% FBS or PBS alone, respectively, and centrifuged at 4,000 × g for 5 min to pellet plasma proteins. The supernatants were analyzed by LCMS/MS and percent compound bound was determined, as described previously ([27]).

[4] = pH 5 (fed simulated intestinal fluid)
[5] = pH 6.5 (fasted simulated intestinal fluid)

T1 sequence (P10635 whole entry): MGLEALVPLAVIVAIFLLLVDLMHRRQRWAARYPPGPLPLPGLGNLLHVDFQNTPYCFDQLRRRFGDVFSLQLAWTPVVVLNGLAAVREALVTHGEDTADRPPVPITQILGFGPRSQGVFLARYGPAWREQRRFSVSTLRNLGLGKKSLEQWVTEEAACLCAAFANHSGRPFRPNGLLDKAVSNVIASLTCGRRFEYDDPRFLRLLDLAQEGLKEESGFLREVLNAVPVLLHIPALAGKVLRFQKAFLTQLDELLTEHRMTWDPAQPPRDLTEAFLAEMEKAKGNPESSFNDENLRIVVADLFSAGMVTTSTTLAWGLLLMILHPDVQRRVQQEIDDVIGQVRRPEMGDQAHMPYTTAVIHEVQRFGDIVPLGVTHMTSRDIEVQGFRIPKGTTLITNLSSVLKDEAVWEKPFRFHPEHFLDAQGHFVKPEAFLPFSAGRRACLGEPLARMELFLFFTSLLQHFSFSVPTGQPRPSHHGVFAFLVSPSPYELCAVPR
T2 sequence (P08684 whole entry): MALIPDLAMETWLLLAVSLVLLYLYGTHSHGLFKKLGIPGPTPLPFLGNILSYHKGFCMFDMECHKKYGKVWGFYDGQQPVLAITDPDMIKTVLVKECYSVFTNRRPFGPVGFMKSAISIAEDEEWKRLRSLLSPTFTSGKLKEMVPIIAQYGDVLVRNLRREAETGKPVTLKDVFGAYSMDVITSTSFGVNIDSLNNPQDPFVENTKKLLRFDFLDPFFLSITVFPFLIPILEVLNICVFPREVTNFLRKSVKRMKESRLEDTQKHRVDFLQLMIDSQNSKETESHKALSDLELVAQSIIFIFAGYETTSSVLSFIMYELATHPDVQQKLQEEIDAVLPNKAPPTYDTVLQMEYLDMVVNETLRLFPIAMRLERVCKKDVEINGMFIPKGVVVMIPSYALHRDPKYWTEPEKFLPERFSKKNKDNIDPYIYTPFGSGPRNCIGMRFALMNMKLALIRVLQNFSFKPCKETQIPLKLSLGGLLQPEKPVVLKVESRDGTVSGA

Row | SMILES | Avg Papp (PAMPA) ([1]; FeSSIF pH 5) [cm/s] | Interpretation (PAMPA Papp) ([1]; FeSSIF pH 5) | Papp 1 (PAMPA) ([1]; FeSSIF pH 5, replicate 1) [cm/s] | Papp 2 (PAMPA) ([1]; FeSSIF pH 5, replicate 2) [cm/s] | Avg Papp (PAMPA) ([1]; pH 7.4) [cm/s] | Interpretation (PAMPA Papp) ([1]; pH 7.4) | Papp 1 (PAMPA) ([1]; pH 7.4, replicate 1) [cm/s] | Papp 2 (PAMPA) ([1]; pH 7.4, replicate 2) [cm/s] | Average Sol (solubility limit) [2, 4] [µM] | Sol 1 (solubility limit) ([2]; pH 5, replicate 1) [µM] | Sol 2 (solubility limit) ([2]; pH 5, replicate 2) [µM] | Average Sol (solubility limit) [2, 5] [µM] | Sol 1 (solubility limit) ([2]; pH 6.5, replicate 1) [µM] | Sol 2 (solubility limit) ([2]; pH 6.5, replicate 2) [µM] | Average Sol (solubility limit) ([2]; pH 7.4 (DMEM-F12 with 10% FBS)) [µM] | Sol 1 (solubility limit) ([2]; pH 7.4, replicate 1) [µM] | Sol 2 (solubility limit) ([2]; pH 7.4, replicate 2) [µM] | HepDES19 SI (CC50/EC50) [3] | EC50 [3] [nM] | CC50 (HepDES19 cells) [µM] | also measured
1 | CC(=NOCc1cccc(Br)c1)c1c(C)cc(=O)n(O)c1O [Compound 1621] | 2.63e-05 | H (H: Papp > 1*10-6) | 3.17e-05 | 2.09e-05 | 4.53e-06 | H (H: Papp > 1*10-6) | 4.9e-07 | 4.47e-06 | > 200 | > 200 | > 200 | > 200 | > 200 | > 200 | > 200 | > 200 | > 200 | 192 | 520 ± 330 | 78.5 ± 32.4 | Papp 3 (PAMPA) ([1]; pH 7.4, replicate 3): 1.06e-05 cm/s; Papp 4 (PAMPA) ([1]; pH 7.4, replicate 4): 4.88e-07 cm/s; Papp 5 (PAMPA) ([1]; pH 7.4, replicate 5): 6.7e-06 cm/s; Papp 6 (PAMPA) ([1]; pH 7.4, replicate 6): 4.44e-06 cm/s; IC50 (CYP2D6): 19.5 µM
2 | CC(=NOCc1cccc(Cl)c1)c1c(C)cc(=O)n(O)c1O [Compound 1719] | 7.26e-05 | H (H: Papp > 1*10-6) | 4.86e-05 | 7.88e-05 | 2.9e-06 | H (H: Papp > 1*10-6) | 2.82e-06 | 2.99e-06 | 150 | 100 | > 200 | > 200 | > 200 | > 200 | > 200 | > 200 | > 200 | 34.5 | 1350 ± 1030 | 56.9 ± 31.1 | Papp 3 (PAMPA) ([1]; FeSSIF pH 5, replicate 3): 9.03e-05 cm/s; IC50 (CYP2D6): 11.2 ± 3.79 µM
3 | CC(=NOCc1ccc(OCc2ccc(C(C)(C)C)cc2)cc1)c1c(C)cc(=O)n(O)c1O [Compound 1808] | – | H (H: Papp > 1*10-6) | 3.22e-05 | 9.19e-06 | 2.97e-06 | H (H: Papp > 1*10-6) | 3.7e-06 | 2.6e-06 | > 200 | > 200 | > 200 | > 200 | > 200 | > 200 | 100 | 100 | 100 | 6.24 | 6000 ± 170 | 38.2 ± 10.2 | Papp 3 (PAMPA) ([1]; FeSSIF pH 5, replicate 3): 8.14e-05 cm/s; Papp 4 (PAMPA) ([1]; FeSSIF pH 5, replicate 4): 9.58e-05 cm/s; Papp 3 (PAMPA) ([1]; pH 7.4, replicate 3): 2.6e-06 cm/s; Percent inhibition of CYP3A4 (CYP3A4): ~ 42%; Clearance (intrinsic clearance, Clint) (Microsome stability): 10.1 µL/min/mg; Half-life (Microsome stability): >30 min
4 | Nc1ccn([C@@H]2CS[C@H](CO)O2)c(=O)n1 [Lamivudine, lamivudine, reference compound] | – | – | – | – | – | – | – | – | – | – | – | – | – | – | – | – | – | – | – | – | Percent bound (plasma proteins): 9.70 ± 11.3%; Percent bound (plasma proteins; listed as lamivudine): 10%
